In patent publication US10507201B2, “Use of ring-fused bicyclic pyridyl derivatives as FGFR4 inhibitors” (NOVARTIS AG, priority 2014, dated 2019):

What was measured:
[1] = tested on: JHH7 hepatocellular carcinoma cells; test: Methylene Blue Staining proliferation assay (MBS), JHH7; type: cell-based
Experimental: (§1) The effect of compounds on cell proliferation is assessed using HuH-7 hepatocellular carcinoma cells obtained from the Japanese Collection of Research Bioresources Cell Bank (Cat#JCRB0403) and cultured in the vendor-recommended medium (DMEM high glucose (Amimed Cat#1-26F01-I), 10% foetal calf serum (Invitrogen Cat#16140-071), 1 mM sodium pyruvate (Amimed Cat#5-60F00-H), 1× Penicillin/Streptomycin (Amimed Cat#4-01F00-H)) at 37° C. in a humidified 5% CO2 incubator. Specifically, 5000 cells/well were seeded in 96-well tissue culture plates (TPP Cat#92696) in a total media volume of 100 μl/well and increasing compound dilutions or DMSO were added 24 hours thereafter in triplicates. 72 hours after compound addition, cells were fixed by adding 25 μL/well of 20% glutaraldehyde (Sigma Aldrich Cat#G400-4) and incubated for 10 minutes at room temperature. Cells were washed three times with H2O, 200 μL/well and stained with 100 μL/well 0.05% methylene blue (ABCR GmbH Cat#AB117904) for 10 minutes at room temperature. Cells were washed 3 times with H2O, 200 μL/well and then lysed by adding 200 μL/well of 3% HCl (Fluka Cat#84422) for 30 minutes at room temperature with shaking. Optical density was measured at A650 nm.
(§2) The effect of compounds on cell proliferation using Hep 3B2.1-7 hepatocellular carcinoma cells, FU97 gastric cancer cells, JHH7 hepatocellular carcinoma cells or JHH6 hepatocellular carcinoma cells is assessed as above. Hep 3B2.1-7, FU97, JHH7 or JHH6 are obtained from the Japanese Collection of Research Bioresources Cell Bank. Hep 3B2.1-7 cells are cultured in EMEM+10% FCS+1 mM Na pyruvate+2 mM L-glutamine and 2000 cells/well are seeded for the proliferation assay. FU97 cells are cultured in DMEM high glucose+10% FCS+1 mM Na pyruvate+4 mM L-glutamine+1×ITS and 2000 cells/well are seeded for the proliferation assay. JHH6 and JHH7 cells are cultured in William's E+10% FCS+2 mM L-glutamine and 3000 cells are seeded for the proliferation assay.

[2] = tested on: HuH-7 hepatocellular carcinoma cells; test: Methylene Blue Staining proliferation assay (MBS), HuH-7; type: cell-based; settings: Homo sapiens, HuH-7 cells, 72 hours after compound addition, read-out: HUH7 proliferation (nM) MBS
Experimental: Methylene Blue Staining Proliferation Assay (MBS):
(§3) 72 hours after compound addition, cells were fixed by adding 25 μL/well of 20% glutaraldehyde (Sigma Aldrich Cat#G400-4) and incubated for 10 minutes at room temperature. Cells were washed three times with H2O, 200 μL/well and stained with 100 μL/well 0.05% methylene blue (ABCR GmbH Cat#AB117904) for 10 minutes at room temperature. […] Optical density was measured at A650 nm.

[3] = tested on: HuH-7 hepatocellular carcinoma cells; test: CellTiter Glo (CTG) assay, HuH-7; settings: Homo sapiens, Huh-7, 72 h, read-out: HUH7 proliferation (nM) CTG
Experimental: CellTiter Glo (CTG) Assay:
Compound-mediated suppression of cell proliferation/viability is assessed by quantification of cellular ATP levels using the CellTiter-Glo (CTG) reagent (Promega, Cat#G7573). […] For data analysis, the assay background value determined in wells containing medium, but no cells, is subtracted from all data points. […] The effect of a particular test compound concentration on cell proliferation/viability is expressed as percentage of the background- and day 0-corrected luminescence reading obtained for cells treated with vehicle only (DMSO, 0.1% f.c.), which is set as 100%, whereas the luminescence reading for wells containing medium only, but no cells, is set as −100%. Compound concentrations leading to half-maximal growth inhibition (GI50) are determined using standard four parameter curve fitting (XLfit 5.2., IDBS, UK).

[4] = tested on: Hep 3B2.1-7 hepatocellular carcinoma cells; test: Methylene Blue Staining proliferation assay (MBS), Hep 3B2.1-7; type: cell-based; settings: Homo sapiens, Hep3B, Hep 3B2.1-7 cells
Experimental: as §3, §2

[5] = tested on: FU97 gastric cancer cells; test: Methylene Blue Staining proliferation assay (MBS), FU97; type: cell-based
Experimental: as §1, §2

Row | IC50 [1] | IC50 [2] | IC50 [3] | IC50 [4] | IC50 [5] | Compound
1 | > 3000 nM | – | – | – | – | COCCOc1cc(NC(=O)N2CCCc3cc(C(F)F)c(C=O)nc32)ncc1C#N [Example 63, N-(5-cyano-4-(2-methoxyethoxy)pyridin-2-yl)-6-(difluoromethyl)-7-formyl-3,4-dihydro-1,8-naphthyridine-1(2H)-carboxamide]
2 | > 3000 nM | 123 nM | 569 nM | – | – | COCCOc1cc(NC(=O)N2CCCc3cc(CO)c(C=O)nc32)ncc1C#N [Example 39, N-(5-cyano-4-(2-methoxyethoxy)pyridin-2-yl)-7-formyl-6-(hydroxymethyl)-3,4-dihydro-1,8-naphthyridine-1(2H)-carboxamide]
3 | 150 nM | – | 168 nM | – | 96 nM | COCCNc1cc(NC(=O)N2CCCc3cc(CO)c(C=O)nc32)ncc1C#N [Example 80, N-(5-cyano-4-((2-methoxyethyl)amino)pyridin-2-yl)-7-formyl-6-(hydroxymethyl)-3,4-dihydro-1,8-naphthyridine-1(2H)-carboxamide]
4 | > 3000 nM | – | – | – | – | N#Cc1ccc(NC(=O)N2CCCc3cc(CO)c(C=O)nc32)nc1 [Example 27, N-(5-cyanopyridin-2-yl)-7-formyl-6-(hydroxymethyl)-3,4-dihydro-1,8-naphthyridine-1(2H)-carboxamide]
5 | – | – | 17.8 nM | 5 nM | – | COC[C@@H](C)Oc1cc(NC(=O)N2CCCc3cc(CN4CCN(C)CC4=O)c(C=O)nc32)ncc1C#N [Example 205, (R)—N-(5-cyano-4-((1-methoxypropan-2-yl)oxy)pyridin-2-yl)-7-formyl-6-((4-methyl-2-oxopiperazin-1-yl)methyl)-3,4-dihydro-1,8-naphthyridine-1(2H)-carboxamide]
6 | 484 nM | 270 nM | – | – | 234 nM | N#Cc1cnc(NC(=O)N2CCCc3cc(CO)c(C=O)nc32)cc1O[C@H]1CCOC1 [Example 50, (S)—N-(5-cyano-4-((tetrahydrofuran-3-yl)oxy)pyridin-2-yl)-7-formyl-6-(hydroxymethyl)-3,4-dihydro-1,8-naphthyridine-1(2H)-carboxamide]
7 | – | – | 38 nM | – | – | CC(C)Oc1cc(NC(=O)N2CCCc3cc(CN4CCN(C)CC4=O)c(C=O)nc32)ncc1C#N [Example 92, N-(5-cyano-4-isopropoxypyridin-2-yl)-7-formyl-6-((4-methyl-2-oxopiperazin-1-yl)methyl)-3,4-dihydro-1,8-naphthyridine-1(2H)-carboxamide]
8 | – | 82 nM | 142 nM | – | – | COCCOc1cc(NC(=O)N2CCCc3cc(CN4CCN(C)CC4=O)c(C=O)nc32)ncc1C#N [Example 101, N-(5-cyano-4-(2-methoxyethoxy)pyridin-2-yl)-7-formyl-6-((4-methyl-2-oxopiperazin-1-yl)methyl)-3,4-dihydro-1,8-naphthyridine-1(2H)-carboxamide]
9 | > 3000 nM | – | – | > 3000 nM | – | CC(=O)N(C)Cc1cc2c(nc1C=O)N(C(=O)Nc1ccc(C#N)cn1)CCC2 [Example 68, N-(5-cyanopyridin-2-yl)-7-formyl-6-((N-methylacetamido)methyl)-3,4-dihydro-1,8-naphthyridine-1(2H)-carboxamide]

Row | Compound | IC50 [1] | IC50 [2] | IC50 [3] | IC50 [4] | IC50 [5]
10 | COCCNc1cc(NC(=O)N2CCCc3cc(CN4CCN(C)CC4=O)c(C=O)nc32)ncc1C#N [Example 83, N-(5-cyano-4-((2-methoxyethyl)amino)pyridin-2-yl)-7-formyl-6-((4-methyl-2-oxopiperazin-1-yl)methyl)-3,4-dihydro-1,8-naphthyridine-1(2H)-carboxamide] | 9 nM | 12 nM | 60.9 nM | 1 nM | 23 nM
